Results: ChEMBL document CHEMBL1777719, “Norcantharidin analogues with nematocidal activity in Haemonchus contortus” (Bioorg Med Chem Lett, 2011)
The source made the active and inactive calls. No cut-off for these calls is given here.

What was measured:
Haemonchus contortus [1] = assay: Nematocidal activity against Haemonchus contortus Haecon 5 strain isolated from helminth-free Merino weaner sheep after 6 days by larval development assay; type: functional; conditions: for LC50: Haemonchus contortus, Haecon 5 strain, 144 h, read-out: LD50 (the source's name)
[2] = Cytotoxicity against human HT-29 cells after 72 hrs by MTT assay; type: cell-based
[3] = Cytotoxicity against human SW480 cells after 72 hrs by MTT assay; type: cell-based
[4] = Cytotoxicity against human MCF7 cells after 72 hrs by MTT assay; type: cell-based
[5] = Cytotoxicity against human A2780 cells after 72 hrs by MTT assay; type: cell-based
[6] = Cytotoxicity against human H460 cells after 72 hrs by MTT assay; type: cell-based; conditions: NCI-H460 cells
[7] = Cytotoxicity against human A431 cells after 72 hrs by MTT assay; type: cell-based, A-431
[8] = Cytotoxicity against human DU145 cells after 72 hrs by MTT assay; type: cell-based, DU-145
[9] = Cytotoxicity against human BE(2)-C cells after 72 hrs by MTT assay; type: cell-based
[10] = Cytotoxicity against human SJ-G2 cells after 72 hrs by MTT assay; type: cell-based
Haemonchus contortus [11] = assay: Nematocidal activity against Haemonchus contortus Haecon 5 strain isolated from helminth-free Merino weaner sheep at 12.5 to 100 uM after 6 days by larval development assay; type: functional, organism-based

| Structure (SMILES) | LD99 (Haemonchus contortus [1]) | LC50 (Haemonchus contortus [1]) | GI50 at 72 h [2] | GI50 at 72 h [3] | GI50 at 72 h [4] | GI50 at 72 h [5] | GI50 at 72 h [6] | GI50 at 72 h [7] | GI50 at 72 h [8] | GI50 at 72 h [9] | GI50 at 72 h [10] | inhibition (Haemonchus contortus [11]) |
| --- | --- | --- | --- | --- | --- | --- | --- | --- | --- | --- | --- | --- |
| N#C/C(=C\c1ccc[nH]1)c1ccccc1 | 100 µM | 6 µM | – | – | – | – | – | – | – | – | – | – |
| CCCCCCCCCCN1C(=O)[C@@H]2[C@H](C1=O)[C@H]1CC[C@@H]2O1 | 90 µM | 30 µM | – | – | – | – | – | – | – | – | – | – |
| N#C/C(=C\c1ccc[nH]1)c1ccc(Cl)c(Cl)c1 | 12.5 µM | 7 µM | – | – | – | – | – | – | – | – | – | – |
| N#C/C(=C\c1ccc[nH]1)c1ccc(Cl)cc1 | 25 µM | 10 µM | – | – | – | – | – | – | – | – | – | – |
| CCCNC(=O)C1C(C(=O)O)[C@@H]2CC[C@H]1O2 (some centres not stated) | – | – | 10 µM | 10 µM | 10 µM | 10 µM | 10 µM | 10 µM | 10 µM | 10 µM | 10 µM | inactive |
| CCCCCCCCNC(=O)C1C(C(=O)O)[C@@H]2CC[C@H]1O2 (some centres not stated) | – | – | 10 µM | 10 µM | 10 µM | 10 µM | 10 µM | 10 µM | 10 µM | 10 µM | 10 µM | inactive |
| O=C(O)c1ccc(NC(=O)C2C(C(=O)O)[C@@H]3CC[C@H]2O3)cc1Cl (some centres not stated) | – | – | 10 µM | 10 µM | 10 µM | 10 µM | 10 µM | 10 µM | 10 µM | 10 µM | 10 µM | inactive |
| O=C(O)CCCNC(=O)C1C(C(=O)O)[C@@H]2CC[C@H]1O2 (some centres not stated) | – | – | 10 µM | 10 µM | 10 µM | 10 µM | 10 µM | 10 µM | 10 µM | 10 µM | 10 µM | inactive |
| O=C(O)C1C(C(=O)Nc2ccc(CO)cc2)[C@H]2CC[C@@H]1O2 (some centres not stated) | – | – | 10 µM | 10 µM | 10 µM | 10 µM | 10 µM | 10 µM | 10 µM | 10 µM | 10 µM | inactive |
| O=C(O)C1C(C(=O)NCCc2ccccc2)[C@H]2CC[C@@H]1O2 (some centres not stated) | – | – | 10 µM | 10 µM | 10 µM | 10 µM | 10 µM | 10 µM | 10 µM | 10 µM | 10 µM | inactive |
| N#C/C(=C\c1ccc[nH]1)c1ccc(F)cc1 | 50 µM | 10 µM | – | – | – | – | – | – | – | – | – | – |
| C/C(=N/Nc1ccccc1)c1ccccc1NC(=O)C1C(C(=O)O)[C@@H]2CC[C@H]1O2 (some centres not stated) | – | – | 10 µM | 10 µM | 10 µM | 10 µM | 10 µM | 10 µM | 10 µM | 10 µM | 10 µM | inactive |
| Cc1cc(C)c(NC(=O)C2C(C(=O)O)[C@@H]3CC[C@H]2O3)c(C)c1 (some centres not stated) | – | – | 10 µM | 10 µM | 10 µM | 10 µM | 10 µM | 10 µM | 10 µM | 10 µM | 10 µM | inactive |
| CCCCCCCCN1C(=O)[C@@H]2[C@H](C1=O)[C@H]1CC[C@@H]2O1 | 80 µM | 40 µM | – | – | – | – | – | – | – | – | – | – |
